Laboratory results as given in patent publication US4925834A, “3-methylene-4-androsten-17-ones, process for their production and pharmaceutical preparations containing them” (Schering Aktiengesellschaft, priority 1987, dated 1990).

Tested on: aromatase
Assay: PMSG test in infantile female rats, orally (serum estradiol)
Assay type: in vivo, rat
Conditions: for Concentration in serum estradiol / % inhibition (against the PMSG control): 10 mg/animal, 2 × p.o., PMSG-treated infantile female rats; for Concentration in serum estradiol: mean with standard deviation, groups of 10; for % inhibition (against the PMSG control): serum estradiol; for effectiveness in oral application: 2×10 mg, PMSG test, in words
Protocol: The aromatase activity can be measured by the influence of the estrogen formation stimulated by PMSG. [J. Steroid. Biochem., 7 (1976) 787] Anit-tumor activity in humans of compounds which have a positive effect in the PMSG test is described in The Lancet, 1 Dec. 1984, ppg. 1237-1239.
In the so-called PMSG test 21-day-old female rats are pretreated subcutaneously every other day for a total of 7 times with 100 IU of PMSG each time. 1 hour before and 8 hours after the last PMSG application (d12) the animals receive the test substance by oral dose. They are killed 24 hours after the last PMSG application. The estradiol is examined radioimmunologically in the serum. The average value of the estradiol concentration in nmol/l with standard deviation is calculated for each group of 10 animals. The significance of the differences from the control group are examined by analysis of variance.
The percentage inhibition is calculated against the PMSG control.

SMILES	Concentration in serum estradiol	% inhibition (against the PMSG control)	effectiveness in oral application
C=C1C=C2CC[C@@H]3[C@H](CC[C@]4(C)C(=O)CC[C@@H]34)[C@@]2(C)CC1 (stereo in doubt) [B, 3-methylene-4-androsten-17-one]	6.20 ± 0.80 nmol/L	0%	no effectiveness
C[C@]12CCC(=O)C(O)=C1CC[C@@H]1[C@@H]2CC[C@]2(C)C(=O)CC[C@@H]12 [A, 4-hydroxy-4-androstene-3,17-dione]	6.08 ± 0.56 nmol/L	0%	no effectiveness
CSC[C@]12CCC(=CF)C=C1CC[C@@H]1[C@@H]2CC[C@]2(C)C(=O)CC[C@@H]12 [C, 3-fluoromethylene-19-methylthio-4-androsten-17-one]	3.24 ± 0.81 nmol/L	45%	markd inhibition effectiveness
